From patent publication US20120035244A1, “PARP1 TARGETED THERAPY” (THE REGENTS OF THE UNIVERSITY OF MICHIGAN, priority 2010, published 2012)
Entries after “also recorded” stand apart in the source; their conditions may differ.

Tests used:
LNCaP [1] = assay: CAM liver metastasis assay, LNCaP; format: in vivo, chicken embryo; conditions: LNCaP (ETS positive), eggs treated every other day with Olaparib, P=0.1
Description: (§1) The CAM assay was performed as described previously (Zijlstra, A., et al., Cancer research 62, 7083-7092 (2002)). Briefly, fertilized eggs were incubated in a rotary humidified incubator at 38° C. with for 10 days. After releasing the CAM by applying mild amount of low pressure to the hole over the air sac and cutting a square 1-cm^2 window encompassing a second hole near the allantoic vein, cultured human cells that had been pre-treated with siRNA as indicated were detached by trypsinization and re-suspended in complete medium prior to implantation of 2×10^6 cells adjacent to the mesenchyme in each egg. The windows were subsequently, sealed and the eggs were returned to a stationary incubator. Cells were then treated as indicated with 40 mg/kg body weight Olaparib which was administered on day 13, 15 and 17. Day 18 embryos were sacrificed. Tumors were then excised and weighed. […] After incubation of either the metastasis or intravasation assays, the extra-embryonic tumor and CAM, as well as the embryonic liver were harvested and analyzed for the presence of tumor cells by quantitative human alu-specific PCR. […] Quantification of human cells in the extracted DNA was done as described^14. Fluorogenic TaqMan qPCR probes were applied as above, and DNA copy numbers were quantified.

LNCaP [2] = assay: CAM xenograft tumor weight, LNCaP; format: in vivo, chicken embryo; conditions: extended Olaparib treatment, P<0.01
Description: as §1

VCaP xenografts = assay: VCaP mouse xenograft model; format: in vivo, mice
Source text: (§2) Olaparib was obtained from Axon Medchem (Groningen, The Netherlands).

[3] = test system: MDA-PCa-2b-T (ETV1 positive); assay: Human prostate cancer tissue xenograft (primagraft) MDA-PCa-2b-T; format: in vivo, mice; conditions: 40 mg/kg Olaparib, P<0.01 (day 8, 12 and 16)
Description: (§3) Human prostate cancer specimens MDA-PCa 2b-T (ETV1 positive), MDA-PCa-133 (ERG positive) and MDA PCa 118b (ETS-negative) were obtained (Li, Z. G., et al. The Journal of clinical investigation 118, 2697-2710 (2008)). Each xenografted tumor tissue was aseptically harvested from the host mice. New recipient mice were anesthetized by injecting […] intraperitoneally for chemical restraint before tumor implantation. About 0.5 cm^3 size of the excised tumor tissue was directly implanted into subcutaneous pockets of 6- to 8-week-old male CB17 SCID mice (Charles River Laboratories) in a laminar flow sterile hood. Sub-cutaneous pocket was carefully closed by applying 1 or 2 wound clips. All mice were monitored for 24 hours after implantation procedure for any apparent physiologic disturbances or missing wound clips. Olaparib (40 mg/Kg body weight) treatment was started after 72 hours. […] Body weight was also monitored weekly during the course of the study.

[4] = Body weight of xenografted mice; format: in vivo; conditions: xenograft and primagraft models, Olaparib treatment
Description: as §2, §3

[5] = Serum ALT and AST of PC3-ERG mice (liver toxicity); format: in vivo
[6] = test system: Ewing's sarcoma cell lines; assay: Ewing's sarcoma cell lines: soft agar colony formation and neutral COMET assays; format: cell-based; conditions: with or without 10 μM Olaparib for 48 hours (COMET); soft agar colony formation
Description: The effect of PARP1 inhibitors on Ewing's sarcoma cell lines was assayed. CADO-ES1 or RD-ES1 cells were treated with siRNA for 48 hours. Cells were then harvested and plated in a transwell migration assay. Forty eight hours later, cells were stained with crystal violet and the total number or invaded cells was quantified. Soft agar colony formation was performed on cells treated with or without Olaparib. Neutral COMET assays were performed on a panel of Ewing's Sarcoma cell lines. PC3 was used as an ETS negative control and PC3-ERG for comparison to an ETS positive model. Cells were treated with or without 10 μM Olaparib for 48 hours. D) As in C, except cells were pre-treated with siRNA for 48 hours. All experiments were run in triplicate. Error bars are standard error of the mean.

PC3 cells = assay: Colony formation after radiation, isogenic PC3 model overexpressing T2:ERG; format: cell-based; conditions: PC3, pre-treated with 10 μM Olaparib
Description: (§4) The effect of ETS overexpression on radioresistance was assayed. Isogenic PC3 or DU145 models overexpressing either T2:ERG or ERG with a deleted ETS domain were pre-treated with or without 10 μM Olaparib and then treated with different doses of radiation as indicated. Colony formation was assessed. Experiments were also performed in which cells were pre-treated with either PARP1 or control siRNA prior to radiation. Western blot analysis was used to assess PARP knockdown efficiency in the inset. Total Poly(ADP-ribose) (or PAR) levels were assessed by Western blot analysis from total cell lysates. All experiments were run in triplicate. Error bars are standard error of the mean.

DU145 cells = assay: Colony formation after radiation, isogenic DU145 model overexpressing T2:ERG; format: cell-based; conditions: DU145, pre-treated with 10 μM Olaparib
Description: as §4

PC3-ERG xenografts = assay: PC3-ERG mouse xenograft model; conditions: P=0.007 for PARP inhibition
Description: Four weeks old male Balb C nu/nu mice were purchased from Charles River, Inc. (Charles River Laboratory, Wilmington, Mass.). VCaP (2×10^6 cells), PC3-luciferase-control (1×10^5 cells) or PC3-luciferase-ERG (1×10^5 cells) stable cells were resuspended in 100 μl of saline with 50% Matrigel (BD Biosciences, Becton Drive, NJ) and were implanted subcutaneously into the left flank region of the mice. Mice were anesthetized using a cocktail of xylazine (80-120 mg/kg, IP) and ketamine (10 mg/kg, IP) for chemical restraint before tumor implantation. All tumors were staged for three week before starting the drug treatment. After week 3 for VCaP cells or after 48 hours for PC3 cells, mice (10 per treatment group) were treated with NU7026 (25 mg/kg, IP), Olaparib (40 mg/kg, IP) daily five times a week. Olaparib was obtained from Axon Medchem (Groningen, The Netherlands). Growth in tumor volume was recorded weekly by using digital calipers and tumor volumes were calculated using the formula (π/6) (L×W2), where L=length of tumor and W=width. Loss of body weight during the course of the study was also monitored weekly.

With `O=C(c1cc(Cc2n[nH]c(=O)c3ccccc23)ccc1F)N1CCN(C(=O)C2CC2)CC1` [Olaparib, 4-[3-(4-Cyclopropanecarbonylpiperazine-1-carbonyl)-4-fluorobenzyl]-2H-phthalazin-1-one] the “formation of liver metastases” value (LNCaP [1]) was “blocked the formation of liver metastases”, the “tumor size (weight) on CAM” value (LNCaP [2]) was “significantly smaller” and the “dose dependence of VCaP tumor growth response” value (VCaP xenografts; Olaparib) was “dose dependent”. The “tumor growth relative to the vehicle control” value (VCaP xenografts; VCaP, Olaparib 40 mg/kg/day IP (P=0.001), NU7026 25 mg/kg/day IP (p=0.004)) was “significant reduction of tumor growth”, the primagraft growth [3] was “inhibited the growth” and the total body weight [4] was “did not lead to a significant decrease in total body weight; also recorded: did not have an observable effect on total body weight; also recorded: does not reduce total mouse body weight”. The “liver toxicity as assessed by serum levels of ALT and AST” value [5] was “did not lead to liver toxicity”, the “sensitivity of Ewing's sarcoma cell lines” value [6] was “sensitive to PARP1; also recorded: sensitive to PARP inhibition” and the “ERG induced radiation resistance (colony formation)” value (PC3 cells) was “blocks ERG induced radiation resistance; also recorded: reversed by PARP inhibition”. The “ERG induced radiation resistance (colony formation)” value (DU145 cells) was “blocks ERG induced radiation resistance; also recorded: reversed by PARP inhibition” and the xenograft growth (PC3-ERG xenografts) was “significantly sensitize the PC3 cells to PARP inhibition”.
